Experiments:
Assay type in all cases: cell-based
Pfeiffer cells = assay: Human diffuse large B-cell lymphoma cell line Pfeiffer proliferation suppression test; conditions: 144 h, compound 10 μM, 3 days + re-plating with compound 3 days, WST-8, read-out: cell survival rate (% of control) Pfeiffer
Method in brief: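 Pfeiffer cells were seeded at 1.3×10^5 cells/mL and dosed the next day with compound at 10 μM final (DMSO control), then grown 3 days at 37 °C, 5% CO2. An aliquot was then passaged into a fresh plate with compound re-added at 10 μM final for 3 more days. Proliferation was read by WST-8.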

Daudi cells = assay: Human Burkitt lymphoma cell line Daudi proliferation suppression test; conditions: 72 h, compound 10 μM, 3 days, WST-8, read-out: cell survival rate (% of control) Daudi
Method in brief: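 Daudi cells plated at 1.3×10^5 cells/mL and cultured overnight at 37° C., 5% CO2, then given test compound at final 10 μM (DMSO vehicle control). After 3 days' culture, proliferation was read by WST-8.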

Kasumi-7 cells = assay: Human acute lymphoblastic leukemia cell line Kasumi-7 proliferation suppression test; conditions: 72 h, compound 10 μM, 3 days, WST-8, read-out: cell survival rate (% of control) Kasumi-7
Method in brief: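 Cells seeded at 1.3×10^5 cells/mL in RPMI1640 with 20% FCS, cultured overnight at 37°C, 5% CO2, then treated with compound at 10 μM final; DMSO vehicle control. Proliferation read by WST-8 after 3 days' culture.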

COc1cscc1-c1nnn(C2CCC(=O)NC2=O)c1I (stereo not drawn) [compound 49, 3-[5-iodo-4-(4-methoxythiophen-3-yl)-1H-1,2,3-triazol-1-yl]piperidine-2,6-dione]
viability at 10 µM (Pfeiffer cells): 75%
viability at 10 µM (Daudi cells): 42%
viability at 10 µM (Kasumi-7 cells): 56%

Reference: patent publication US11299485B2, “Thiophene derivative and use thereof” (FUJIMOTO CO., LTD., priority 2018, dated 2022)
